Here are results for 17 compounds from article PMC6150212, “New Biflavonoids with α-Glucosidase and Pancreatic Lipase Inhibitory Activities from Boesenbergia rotunda” (Molecules : A Journal of Synthetic Chemistry and Natural …, 2017).

Read-outs that look alike come from different tables or passages of the source.

For assay [1], the target named is Yeast α-glucosidase enzyme. Briefly: α-Glucosidase inhibitory activity assay (PNPG hydrolysis). The assay is classed as biochemical. The procedure:
(§1) Optical rotations were obtained with a Perkin-Elmer 341 polarimeter (Boston, MA, USA). UV spectra were measured on a Milton Roy Spectronic 300 Array spectrophotometer, and IR was recorded on a Perkin-Elmer FT-IR 1760x spectrophotometer (Boston, MA, USA). High-resolution electrospray ionization mass spectra (HR-ESI-MS) were recorded with a Bruker micro TOF mass spectrometer (Billerica, MA, USA). NMR spectra were obtained with a Bruker Avance DPX-300 FT-NMR spectrometer (Billerica, MA, USA). Vacuum liquid chromatography (VLC) and column chromatography (CC) were performed on silica gel 60 (Merck, 70–230 µm, Darmstadt, Germany), silica gel 60 (Merck, […]) or Sephadex LH-20 (Pharmacia, Piscataway, NJ, USA). Yeast α-glucosidase enzyme, p-nitrophenol-α-D-glucopyranoside, pancreatic lipase, and 4-methylumbelliferyl oleate were purchased from Sigma Chemical, Inc. (St. Louis, MO, USA), and acarbose from Fluka Chemical (Buchs, Switzerland).
(§2) The assay was based on the capacity of the sample to inhibit the hydrolysis of p-nitrophenyl-α-D-glucoside (PNPG) by α-glucosidase to release p-nitrophenol (PNP), a yellow color agent that can be monitored at 405 nm. Briefly, 10 μL of sample solution and 40 μL of 0.1 unit/mL α-glucosidase were incubated at 37 °C for 10 min. Then, 50 μL of 2 mM PNPG was added, and the mixture was further incubated at 37 °C for 20 min. One hundred microliters of 1 mM Na2CO3 was added, and the progress of the enzyme inhibition was monitored by measuring the absorbance at 405 nm. Acarbose was used as a positive control.

The test system of assay [2] is Yeast α-glucosidase enzyme. Briefly: Kinetic study of α-glucosidase inhibition (Lineweaver-Burk and secondary plots). The assay is classed as biochemical. Particulars: for Mode of inhibition of α-glucosidase / Km: Lineweaver-Burk plot; for Ki: from secondary plot, read-out: α-Glucosidase inhibition constant (Ki); for Km: PNPG substrate, read-out: Michaelis-Menten constant, Km (x-axis intersection), α-glucosidase. The procedure:
as §2
(§3) An enzyme kinetic analysis was performed based on the α-glucosidase or lipase inhibition assay as described above. The PNPG concentrations varied from 1 to 4 mM, and the 4-MUO concentrations varied from 0.063 to 1 mM in the absence or presence of the test compounds for kinetic assays of α-glucosidase and lipase, respectively. The inhibition mode was determined by double-reciprocal Lineweaver-Burk plot (1/V vs. 1/[S]). In order to estimate the Ki value, slopes of double-reciprocal lines were used to construct a secondary plot, and Ki was calculated from the line equation of the plot.

For assay [3], the target named is T1, lipase from porcine pancreas (Type II) (Sus scrofa, UniProt P00591).
T1 construct: lipase from porcine pancreas (Type II); purchased Sigma Chemical, Inc. (St. Louis, MO, USA); host or cells: porcine pancreas
T1 sequence (P00591 1-450): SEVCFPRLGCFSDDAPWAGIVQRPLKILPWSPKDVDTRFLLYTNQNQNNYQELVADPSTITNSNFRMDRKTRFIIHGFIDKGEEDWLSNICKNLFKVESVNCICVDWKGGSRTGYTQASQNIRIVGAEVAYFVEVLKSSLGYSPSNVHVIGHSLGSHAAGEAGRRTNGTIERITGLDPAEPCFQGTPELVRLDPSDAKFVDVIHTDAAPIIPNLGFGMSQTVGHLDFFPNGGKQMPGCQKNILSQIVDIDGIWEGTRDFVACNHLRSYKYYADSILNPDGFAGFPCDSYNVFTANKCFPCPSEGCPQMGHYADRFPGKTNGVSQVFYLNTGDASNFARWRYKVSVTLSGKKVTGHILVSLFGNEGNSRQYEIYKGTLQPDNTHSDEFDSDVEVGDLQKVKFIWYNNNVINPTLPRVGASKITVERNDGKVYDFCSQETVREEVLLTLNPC
The assay can be described thus: Lipase inhibitory activity assay (4MUO substrate). The assay is classed as biochemical. As for the experimental part: as §1
(§4) The lipase inhibitory activity was assessed by measuring the amount of 4-methylumbelliferone (4MU), using 4-methylumbelliferyl oleate (4MUO) as substrate. The assay was modified from a previously reported method. In brief, 25 μL of a blank, plant extract vehicle, or a sample solution and 50 μL of 0.5 mM 4MUO in buffer consisting of 13 mM Tris-HCl, 150 mM NaCl, and 1.3 mM CaCl2 (pH 8.0), were mixed in 96-well microtiter plate. Twenty-five microliters of lipase from porcine pancreas (Type II), prepared at 0.5 mg/mL in the same buffer, was then added to start the enzyme reaction. After incubation at room temperature for 30 min, 100 μL of 0.1 M sodium citrate (pH 4.2) was added to stop the reaction. Fluorescence, corresponding to released 4MU, was then measured with excitation and emission wavelengths of 355 and 460 nm, respectively.

Assay [4] has as its system high-fat-diet (HFD)-induced obesity. Further details: method as in PMID 22312299, PMID 21320266. Particulars: mice; by activating AMPK; cited from earlier work.
Assay [5] addresses T1, lipase from porcine pancreas (Type II). Briefly: Kinetic study of lipase inhibition (Lineweaver-Burk and secondary plots). The assay is classed as biochemical. The conditions noted are these: for Mode of inhibition of lipase: Lineweaver-Burk plot; for Ki: from secondary plot. The procedure:
as §4, §3

Consider `C[C@H]1O[C@H](O[C@H]2[C@H](O)[C@@H](O)[C@@H](O[C@H]3[C@H](O)[C@@H](O)C(O)O[C@@H]3CO)O[C@@H]2CO)[C@H](O)[C@@H](O)[C@@H]1N[C@H]1C=C(CO)[C@@H](O)[C@H](O)[C@H]1O` (stereo partly shown) [Acarbose, reference compound], for which the IC50 (usually the midpoint of a concentration-inhibition curve) in assay [1] amounted to 1160 ± 23 µM. The compound also gave an IC50 in assay [1] (rounded value) of 1200 µM. Also, in assay [2], the “Mode of inhibition of α-glucosidase” value was “competitive”; the Ki (usually the dissociation constant of the complex between target and ligand, obtained from inhibition or displacement) is 167 µM.

Turning to `COc1cc(O)c2c(c1)O[C@H](c1ccccc1)CC2=O` [Compound 1, Pinostrobin], the “α-Glucosidase % Inhibition (at 20 µg/mL)” value in assay [1] stood at 10.0 ± 2.9%. In addition, in assay [3], at 20 µg/mL the inhibition was 7.9 ± 0.8%.

`CC(C)=CCC/C(C)=C/CO` [Compound 2, Geraniol]: the “α-Glucosidase % Inhibition (at 20 µg/mL)” value in assay [1] is on record as 9.6 ± 4.0%. Moreover, 20 µg/mL produced 30.6 ± 2% inhibition in assay [3].

For the compound `COc1cc(O)c(C(=O)[C@@H]2[C@H](CC=C(C)C)C(C)=CC[C@H]2c2ccccc2)c(O)c1` [Compound 3, Panduratin A], in assay [1], the IC50 came to 12.7 ± 1.3 µM and the “α-Glucosidase % Inhibition (at 20 µg/mL)” value stood at 94.7 ± 0.4%. Moreover, in assay [3], inhibition was half-maximal at 17.1 ± 3.7 µM (IC50) and the inhibition (as a rule, the drop in the measured response relative to a control, in per cent) at 20 µg/mL was found to be 72.3 ± 0.1%. The “Effect on high-fat-diet (HFD)-induced obesity” value in assay [4] is given as “attenuate high-fat-diet (HFD)-induced obesity”.

Take `COc1cc(O)cc(O)c1C(=O)C1C(CC=C(C)C)C(C)=CCC1c1ccccc1` (stereo not shown) [Compound 4, Isopanduratin A]: in assay [1], inhibition was half-maximal at 7.5 ± 0.6 µM (IC50) and the “α-Glucosidase % Inhibition (at 20 µg/mL)” value came to 97.8 ± 0.8%. In addition, in assay [3], the IC50 was found to be 15.1 ± 3.3 µM and testing at 20 µg/mL gave an inhibition of 75.2 ± 1.1%. For the same compound, in assay [5], the “Mode of inhibition of lipase” value is “mixed-type” and affinity was put at a Ki of 5.79 µM.

Turning to `O=C1C[C@@H](c2ccccc2)Oc2cc(O)cc(O)c21` [Compound 5, Pinocembrin], the “α-Glucosidase % Inhibition (at 20 µg/mL)” value in assay [1] is on record as 19.8 ± 0.1%. The compound further came in with an inhibition at 20 µg/mL in assay [3] of 3.7 ± 1.3%.

On to `COc1cc(O)cc(O)c1C(=O)/C=C/c1ccccc1` [Compound 6, Cardamonin], for which, in assay [1], the “α-Glucosidase % Inhibition (at 20 µg/mL)” value amounted to 19.7 ± 0.9%. 20 µg/mL produced 7.7 ± 1.9% inhibition in assay [3].

As for `CC(C)=CC[C@@H]1C(C)=CC[C@@H](c2ccccc2)[C@@H]1C(=O)c1c(O)cc(O)cc1O` [Compound 7, Hydroxypanduratin A], in assay [1], the IC50 was determined as 4.6 ± 0.4 µM and the “α-Glucosidase % Inhibition (at 20 µg/mL)” value is 98.5 ± 0.4%. This compound also showed an inhibition at 20 µg/mL in assay [3] of 49.3 ± 2.7%. In assay [2], the “Mode of inhibition of α-glucosidase” value was “non-competitive”, the Km (usually the substrate concentration at which the rate is half of its maximum) is 460 µM and the Ki amounted to 4.03 µM.

`COc1cc(/C=C/c2ccccc2)oc(=O)c1` [Compound 8, 5,6-Dehydrokawain]: in assay [1], the “α-Glucosidase % Inhibition (at 20 µg/mL)” value came out at 9.5 ± 2.5%. The compound also came in with an inhibition at 20 µg/mL in assay [3] of 33.7 ± 1%.

Take `COc1cc(O)c(C(=O)CC(c2ccccc2)c2c(O)cc3c(c2O)C(=O)CC(c2ccccc2)O3)c(O)c1` (stereo not shown) [Compound 9, rotundaflavanochalcone]: in assay [1], 2.4 ± 0.4 µM corresponded to half-maximal inhibition (IC50) and the “α-Glucosidase % Inhibition (at 20 µg/mL)” value is on record as 100.0 ± 0.0%. In assay [3], this compound returned a half-maximal inhibitory concentration (IC50) of 25.8 ± 2.6 µM and an inhibition at 20 µg/mL of 69.1 ± 1.6%. Also, in assay [2], the “Mode of inhibition of α-glucosidase” value is “non-competitive”, the Km was determined as 470 µM and the Ki was determined as 7.19 µM. In assay [5], the “Mode of inhibition of lipase” value is listed as “non-competitive” and the Ki amounted to 3.55 µM.

As for `O=C(CCc1ccccc1)c1c(O)cc(O)cc1O` [Compound 10, 2′,4′,6′-Trihydroxydihydrochalcone], in assay [1], the concentration for half-maximal inhibition (IC50) stood at 32 ± 2.2 µM and the “α-Glucosidase % Inhibition (at 20 µg/mL)” value is given as 88.1 ± 0.9%. 20 µg/mL produced 48.7 ± 3.5% inhibition in assay [3].

`COc1cc(O)cc(O)c1C(=O)CC(c1ccccc1)c1c(O)cc2c(c1O)C(=O)CC(c1ccccc1)O2` (stereo not shown) [Compound 12, iso-rotundaflavanochalcone]: in assay [1], 3.4 ± 0.9 µM corresponded to half-maximal inhibition (IC50) and the “α-Glucosidase % Inhibition (at 20 µg/mL)” value is 100.0 ± 0.2%. For the same compound, in assay [3], the IC50 was determined as 30.1 ± 2.3 µM and the inhibition at 20 µg/mL turned out to be 67.8 ± 1.3%.

Turning to `O=C(CC(c1ccccc1)c1c(O)cc2c(c1O)C(=O)CC(c1ccccc1)O2)c1c(O)cc(O)cc1O` (stereo not shown) [Compound 13, de-O-methyl rotundaflavanochalcone], in assay [1], the IC50 amounted to 1.3 ± 0.2 µM and the “α-Glucosidase % Inhibition (at 20 µg/mL)” value amounted to 100.0 ± 0.1%. In assay [3], the IC50 was determined as 10.6 ± 1.2 µM and the inhibition at 20 µg/mL is 80.5 ± 0.6%.

As to `COc1cc(O)cc(O)c1C(=O)/C=C/c1ccc(O)cc1` [Compound 14, 4,4′,6′-trihydroxy-2′-methoxychalcone], the “α-Glucosidase % Inhibition (at 20 µg/mL)” value in assay [1] was 97.1 ± 0.5%. In assay [3], this compound gave an inhibition at 20 µg/mL of 70.9 ± 2%.

Consider `COc1cc(O)cc2c1C(=O)CC(c1ccc(O)cc1)O2` (stereo not shown) [Compound 15, 4′-7-Dihydroxy-5-methoxyflavanone], for which, in assay [1], the “α-Glucosidase % Inhibition (at 20 µg/mL)” value was 20.9 ± 2.1%. In assay [3], this compound registered an inhibition at 20 µg/mL of 44.7 ± 1.7%.

On to `CCCCCCCCCCC[C@@H](C[C@@H]1OC(=O)[C@H]1CCCCCC)OC(=O)[C@H](CC(C)C)NC=O` [Orlistat, reference compound], for which, in assay [5], the “Mode of inhibition of lipase” value is listed as “competitive”.

As for Alpinetin [Compound 11], the “α-Glucosidase % Inhibition (at 20 µg/mL)” value in assay [1] was 7.0 ± 2.0%. Besides, the “Lipase % Inhibition (at 20 µg/mL)” value in assay [3] (at 20 µg/mL) amounted to 8.0 ± 1.9%.
